We go through 16 compounds from US20090030015A1, “NOVEL MULTI-CYCLIC COMPOUNDS” (REVOTAR BIOPHARMACEUTICALS AG, priority 2005, published 2009).

Test [1] addresses T1, human L-Selectin-IgG-chimera (Homo sapiens, UniProt P14151).
T1 construct: fused on or other part: human IgG Fc part, captured on the plate by goat anti human Fc antibody; a tag, no second protein
T1 sequence (P14151 39-318 limits assumed): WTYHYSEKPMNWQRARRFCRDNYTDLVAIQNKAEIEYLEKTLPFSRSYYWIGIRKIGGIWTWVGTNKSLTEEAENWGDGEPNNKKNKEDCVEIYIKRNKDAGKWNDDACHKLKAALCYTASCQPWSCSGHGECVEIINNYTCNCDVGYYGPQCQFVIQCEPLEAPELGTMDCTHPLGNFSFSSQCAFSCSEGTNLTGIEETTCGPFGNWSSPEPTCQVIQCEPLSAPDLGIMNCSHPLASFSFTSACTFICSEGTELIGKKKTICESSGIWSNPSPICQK
Kind of test: Sialyl Lewis X Tyrosine Sulfate Assay (sLex TSA), L-selectin. The conditions noted are these: sLexTSA. In kind it is binding. Here is the method:
(§1) Sialyl Lewis^X Tyrosine Sulfate Assay (sLe^x TSA):
(§2) Compounds of the present invention are assayed on a molecular level for their ability to inhibit the binding of P-, L-, or E-selectin chimeric molecules to sLe^x and tyrosinesulfate residues linked to a polymeric matrix as a PSGL-1 substitute. Selected IC50-values are determined.
(§3) Microtiter plates are coated overnight in carbonate buffer pH9.6 with goat anti human Fc mAB (10 μg/ml). After washing in assay buffer (25 mM 4-(2-hydroxyethyl)-1-piperazineethanesulfonic acid (HEPES), 150 mM NaCl, 1 mM CaCl2 pH7.4) and blocking (3% bovine serum albumin (BSA) in assay buffer) plates are incubated for 2 h at 37° C. with human P-Selectin-IgG-chimera (0.61 nM respectively 150 ng/mL) or human L-Selectin-IgG-chimera (0.61 nM respectively 89 ng/mL) or human E-Selectin-IgG-chimera (0.61 nM respectively 131 ng/mL). 5 μl of sLe^x-tyrosine sulfate polyacrylamide (1 mg/ml) carrying 15% sLe^x, 10% Tyrosine-sulfate and 5% biotin is complexed with 20 μl Streptavidin-Peroxidase solution (1 mg/ml) and 25 μl assay buffer without CaCl2. For use in the assay, the ligand complex is diluted 1:10000 in assay buffer and further diluted 1:1 with varying amounts of compounds in assay buffer incl. 2% DMSO. This mixture is added to the wells precoated with E- or P-selectin. After incubation for 2 h at 37° C., wells are washed for six times with in assay buffer incl. 0.005% Polyoxyethylenesorbitan monolaurate (TWEEN 20), developed for 10-15 min with 20 μl 3,3′,5,5′-tetramethylbenzidine (TMB)/H2O2 substrate solution and stopped with 20 μl 1M H2SO4. Bound sLe^x-Tyrosine sulfate ligand complex is determined by measuring optical density at 450 nm vs. 620 nm in a Fusion alpha-FP reader (sold from Packard Bioscience, Dreieich, Germany).

The subject of test [2] is human E-selectin-IgG chimera. Put plainly: Flow chamber assay, cell adhesion and rolling under flow conditions, E-selectin. Particulars: normalized ratio of %-inhibition of compound divided by %-inhibition of bimosiamose; 125 μM compound; HL-60 cells; flow shear 1 dyne/cm^2. Type of test: cell-based. As to the method: (§4) Flow Chamber Assay/Cell Adhesion and Rolling Under Flow Conditions
(§5) To assess the capability of compounds to inhibit cell binding under dynamic conditions resembling the flow in a blood vessel, flow chamber assays addressing/testing binding of HL-60 cells/various cell lines to P-selectin, L-selectin and E-selectin chimeric molecules are performed.
(§6) Cell attachment under flow conditions is determined using a parallel flow chamber system. A 35 mm polystyrene culture dish is coated for 1 hour at room temperature with coating buffer (50 mM tris-(hydroxymethyl)aminomethane buffer (Tris), 150 mM NaCl, 2 mM CaCl2; pH 7.4) containing human E- or P-selectin-IgG chimera at concentrations of 2.5 μg/ml or 10 μg/ml, respectively. After removal of the coating solution non specific binding sites are blocked for an additional hour with 1% BSA in coating buffer at room temperature. After washing with assay buffer (“Roswell Park Memorial Institute 1640” (RPMI 1640)+10 mM HEPES) the dish is fitted into a parallel plate laminar flow chamber (sold from Glycotech, Rockville, Md.) and mounted on an inverted phase-contrast microscope (sold from Olympus, Hamburg, Germany) equipped with a CCD camera (JVC) that is connected to a PC. Employing a peristaltic pump (sold from Ismatec, Wertheim-Mondfeld, Germany) the re-circulating system is equilibrated with assay buffer containing 125 μM compound or vehicle control (DMSO). Cells (1 million/ml) are added to the chamber and allowed to distribute for 2 minutes at a high flow rate. The flow rate is then decreased resulting in a calculated flow shear of 1 dyne/cm^2. Video sequences of 10 low power fields are digitally recorded after 5 minutes continuous flow. The percentage of inhibition is calculated from the mean number of cells per field that attached to the coated dish surface in the presence versus absence of compound […].

Test [3] concerns human P-selectin-IgG chimera. Put plainly: Flow chamber assay, cell adhesion and rolling under flow conditions, P-selectin. Particulars: normalized ratio of %-inhibition of compound divided by %-inhibition of bimosiamose; 125 μM compound; HL-60 cells; flow shear 1 dyne/cm^2. Type of test: cell-based. As to the method: as §4, §5, §6
Test [4] has as its target T2, human P-Selectin-IgG-chimera (Homo sapiens, UniProt P16109).
T2 sequence (P16109 42-771 limits assumed): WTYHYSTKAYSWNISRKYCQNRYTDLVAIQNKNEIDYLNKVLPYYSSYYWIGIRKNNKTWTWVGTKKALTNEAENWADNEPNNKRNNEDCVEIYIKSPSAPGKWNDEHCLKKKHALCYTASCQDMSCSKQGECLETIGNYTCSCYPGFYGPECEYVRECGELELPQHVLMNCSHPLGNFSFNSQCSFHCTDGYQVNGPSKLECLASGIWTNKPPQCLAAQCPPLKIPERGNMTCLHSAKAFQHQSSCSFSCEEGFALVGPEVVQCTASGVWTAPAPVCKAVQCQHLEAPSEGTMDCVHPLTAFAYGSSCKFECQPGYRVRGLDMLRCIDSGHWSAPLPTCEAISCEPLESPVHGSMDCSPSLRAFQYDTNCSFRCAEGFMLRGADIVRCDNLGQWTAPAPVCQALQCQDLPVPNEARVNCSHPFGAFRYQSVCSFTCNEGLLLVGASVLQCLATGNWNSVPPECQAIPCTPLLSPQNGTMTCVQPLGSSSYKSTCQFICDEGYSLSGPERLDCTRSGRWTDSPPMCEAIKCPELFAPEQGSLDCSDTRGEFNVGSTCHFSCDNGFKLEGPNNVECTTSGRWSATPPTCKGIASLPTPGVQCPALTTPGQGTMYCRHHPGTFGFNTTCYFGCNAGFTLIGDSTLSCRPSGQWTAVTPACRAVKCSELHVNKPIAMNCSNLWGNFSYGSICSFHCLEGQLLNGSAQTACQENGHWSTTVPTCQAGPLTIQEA
Put plainly: Sialyl Lewis X Tyrosine Sulfate Assay (sLex TSA), P-selectin. Particulars: sLexTSA. In kind it is binding. Here is the method:
as §1, §2, §3

Consider `O=C(O)Cc1cccc(-c2cc(CCCCCCc3ccc(O[C@H]4O[C@H](CO)[C@@H](O)[C@H](O)[C@@H]4O)c(-c4cccc(CC(=O)O)c4)c3)ccc2O[C@H]2O[C@H](CO)[C@@H](O)[C@H](O)[C@@H]2O)c1` [Bimosiamose, bimosiamose, reference compound], for which, in test [1], the IC50 is > 500 µM.
Turning to `Cc1oc(-c2ccc(NC(=O)Cc3ccc(O)cc3O)cc2)cc1C(=O)O` [Compound 29, 5-{4-[2-(2,4-Dihydroxy-phenyl)-acetylamino]-phenyl}-2-methyl-furan-3-carboxylic acid], in test [2], the “E-Selectin [Ratio]” value worked out at 1.31 Ratio. In addition, the “P-Selectin [Ratio]” value in test [3] was determined as 0.74 Ratio.
Taken in the same sequence, the figures for `Cc1oc(-c2ccc(NC(=O)Cc3cc(O)cc(O)c3)cc2)cc1C(=O)O` [Compound 31, 5-{4-[2-(3,5-Dihydroxy-phenyl)-acetylamino]-phenyl}-2-methyl-furan-3-carboxylic acid] were 1.16 Ratio and 0.60 Ratio.
For `COc1ccc(-c2cccc(C(=O)Nc3ccccc3-c3ccc(CC(=O)O)s3)c2)c(OC)c1` [Compound 62, (5-{2-[(2′,4′-Dimethoxy-biphenyl-3-carbonyl)-amino]-phenyl}-thiophen-2-yl)acetic acid], in test [2], the “E-Selectin [Ratio]” value was determined as 1.15 Ratio. Besides, the half-inhibitory concentration (IC50) in test [1] came out at 151 µM; in test [4], 62.9 µM. The “P-Selectin [Ratio]” value in test [3] was 1.22 Ratio.
Turning to `O=C(O)Cc1ccc(-c2ccccc2NC(=O)c2cccc(-c3ccc(O)cc3O)c2)s1` [Compound 63, (5-{2-[(2′,4′-Dihydroxy-biphenyl-3-carbonyl)-amino]-phenyl}-thiophen-2-yl)acetic acid], the “E-Selectin [Ratio]” value in test [2] stood at 1.31 Ratio. Moreover, the IC50 in test [1] turned out to be 157 µM; in test [4] it was 81.2 µM. Further, the “P-Selectin [Ratio]” value in test [3] was 1.95 Ratio.
With `O=C(O)Cc1ccc(-c2ccccc2NC(=O)Cc2cccc(-c3ccc(O)cc3O)c2)s1` [Compound 70, (5-{2-[2-(2′,4′-Dihydroxy-biphenyl-3-yl)-acetylamino]-phenyl}-thiophen-2-yl)-acetic acid], in test [2], the “E-Selectin [Ratio]” value is on record as 0.83 Ratio. Further, the “P-Selectin [Ratio]” value in test [3] is given as 0.82 Ratio. The compound further returned a half-maximal inhibitory concentration (IC50) in test [4] of 354 µM.
`COC(=O)Cc1ccc(-c2ccccc2NC(=O)c2cncc(-c3ccc(O)cc3O)c2)s1` [Compound 74, [5-(2-{[5-(2,4-Dihydroxy-phenyl)-pyridine-3-carbonyl]-amino}-phenyl)-thiophen-2-yl]-acetic acid methyl ester]: the “E-Selectin [Ratio]” value in test [2] amounted to 0.68 Ratio. The “P-Selectin [Ratio]” value in test [3] is 1.02 Ratio.
Taken in the same sequence, the figures for `O=C(O)c1cccc(NC(=O)c2cccc(-c3ccc(O)cc3O)c2)c1` [Compound 79, 3-[(2′,4′-Dihydroxy-biphenyl-3-carbonyl)-amino]-benzoic acid] were 0.96 Ratio and 1.19 Ratio.
Consider `O=C(O)Cc1ccc(-c2ccccc2NC(=O)c2cccc(-c3cc(O)cc(O)c3)c2)s1` [Compound 82, (5-{2-[(3′,5′-Dihydroxy-biphenyl-3-carbonyl)-amino]-phenyl}-thiophen-2-yl)-acetic acid], for which, in test [2], the “E-Selectin [Ratio]” value is 1.35 Ratio. Also, the “P-Selectin [Ratio]” value in test [3] was found to be 2.11 Ratio.
With `O=C(Nc1ccccc1-c1ccc(C(=O)O)s1)c1cccc(-c2cc(O)cc(O)c2)c1` [Compound 85, 5-{2-[(3′,5′-Dihydroxy-biphenyl-3-carbonyl)-amino]-phenyl}-thiophene-2-carboxylic acid], in test [2], the “E-Selectin [Ratio]” value stood at 1.20 Ratio. Further, the “P-Selectin [Ratio]” value in test [3] worked out at 1.90 Ratio.
For the compound `O=C(Nc1ccccc1-c1cccs1)c1cccc(-c2ccc(O)cc2O)c1` [Compound 87, 2′,4′-Dihydroxy-biphenyl-3-carboxylic acid (2-thiophen-2-yl-phenyl)-amide], in test [2], the “E-Selectin [Ratio]” value is given as 1.24 Ratio. The “P-Selectin [Ratio]” value in test [3] stood at 1.05 Ratio.
Turning to `COc1ccc(-c2cccc(C(=O)Nc3cccc(-c4ccc(CC(=O)O)s4)c3)c2)c(OC)c1` [Compound 89, (5-{3-[(2′,4′-Dimethoxy-biphenyl-3-carbonyl)-amino]-phenyl}-thiophen-2-yl)-acetic acid], the “E-Selectin [Ratio]” value in test [2] came out at 1.27 Ratio. Besides, the “P-Selectin [Ratio]” value in test [3] came out at 1.41 Ratio.
As for `O=C(O)Cc1ccc(-c2cccc(NC(=O)c3cccc(-c4ccc(O)cc4O)c3)c2)s1` [Compound 90, (5-{3-[(2′,4′-Dihydroxy-biphenyl-3-carbonyl)-amino]-phenyl}-thiophen-2-yl)-acetic acid], the half-inhibitory concentration (IC50) in test [1] came to 38.7 µM; in test [4] it was 19.1 µM.
As to `Cc1oc(-c2ccc(NC(=O)c3cccc(-c4ccc(O)cc4O)c3)nc2)cc1C(=O)O` [Compound 93, 5-{6-[(2′,4′-Dihydroxy-biphenyl-3-carbonyl)-amino]-pyridin-3-yl}-2-methyl-furan-3-carboxylic acid], the “E-Selectin [Ratio]” value in test [2] came out at 0.86 Ratio. In addition, the “P-Selectin [Ratio]” value in test [3] was 1.13 Ratio.
Taken in the same sequence, the figures for `Cc1oc(-c2ccc(NC(=O)c3cccc(-c4ccc(O)cc4O)c3)cc2)cc1C(=O)O` [Compound 96, 5-{4-[(2′,4′-Dihydroxy-biphenyl-3-carbonyl)-amino]-phenyl}-2-methyl-furan-3-carboxylic acid] were 1.13 Ratio and 1.02 Ratio.
Turning to `O=C(Nc1cccc(C(F)(F)F)c1)c1cccc(-c2ccc(O)cc2O)c1` [Compound 98, 2′,4′-Dihydroxy-biphenyl-3-carboxylic acid (3-trifluoromethyl-phenyl)-amide], in test [2], the “E-Selectin [Ratio]” value amounted to 1.26 Ratio. Further, the “P-Selectin [Ratio]” value in test [3] is recorded as 1.00 Ratio.

In general, IC50 refers to the concentration at which inhibition is half-maximal. High values mean a need for much substance, low ones inhibition by little substance.
